Reference: ChEMBL document CHEMBL4270512, “Harnessing pyrrolidine iminosugars into dimeric structures for the rapid discovery of divalent glycosidase inhibitors” (Eur J Med Chem, 2018)

Columns and labels:
[1] = Uncompetitive inhibition of bovine kidney alpha-fucosidase using p-nitrophenyl glycopyranoside as substrate preincubated for 5 mins followed by substrate addition and measured after 20 mins by Lineweaver-Burk plot analysis; parameters: species or system Bos taurus
[2] = Competitive inhibition of bovine kidney alpha-fucosidase using p-nitrophenyl glycopyranoside as substrate preincubated for 5 mins followed by substrate addition and measured after 20 mins by Lineweaver-Burk plot analysis; parameters: species or system Bos taurus

- Ki [1]: 1 nM
- Ki [2]: 0.2 nM
SMILES: C#C[C@H]1[C@H](O)[C@H](O)[C@H](C)N1C(=O)OC(C)(C)C
